Test results taken from ChEMBL document CHEMBL4837257, “Discovery of the Oxadiazine FRM-024: A Potent CNS-Penetrant Gamma Secretase Modulator” (J Med Chem, 2021).

Assays:
[1] = tested on: Mus musculus; test: In vivo modulation of gamma secretase in mouse assessed as reduction in Abeta42 levels in brain at 30 mg/kg, po measured after 6 hrs relative to control; type: functional; set-up: scale not given: the % may be the effect or the level left
[2] = tested on: Rattus norvegicus; test: In vivo modulation of gamma secretase in rat assessed as reduction in Abeta42 levels in CSF at 30 mg/kg, po measured after 6 hrs by ELISA relative to control; type: functional, Cerebrospinal fluid; set-up: scale not given: the % may be the effect or the level left
[3] = tested on: Rattus norvegicus; test: In vivo modulation of gamma secretase in rat assessed as reduction in Abeta42 levels in brain by measuring AUC(0 to 24 hrs) at 30 mg/kg, po by ELISA; type: functional; set-up: scale not given: the % may be the effect or the level left
[4] = tested on: Rattus norvegicus; test: In vivo modulation of gamma secretase in rat assessed as reduction in Abeta42 levels in CSF by measuring AUC(0 to 24 hrs) at 30 mg/kg, po by ELISA; type: functional, Cerebrospinal fluid; set-up: scale not given: the % may be the effect or the level left
[5] = tested on: Rattus norvegicus; test: In vivo modulation of gamma secretase in rat assessed as reduction in Abeta40 levels in CSF by measuring AUC(0 to 24 hrs) at 30 mg/kg, po by ELISA; type: functional, Cerebrospinal fluid; set-up: scale not given: the % may be the effect or the level left
[6] = tested on: Rattus norvegicus; test: In vivo modulation of gamma secretase in rat assessed as reduction in Abeta42 levels in brain at 30 mg/kg, po measured at 16 hrs by ELISA relative to control; type: functional; set-up: scale not given: the % may be the effect or the level left
[7] = tested on: Rattus norvegicus; test: In vivo modulation of gamma secretase in rat assessed as reduction in Abeta40 levels in CSF at 30 mg/kg, po measured at 9 hrs by ELISA relative to control; type: functional, Cerebrospinal fluid; set-up: scale not given: the % may be the effect or the level left
[8] = In vivo modulation of gamma secretase in nonhuman primate assessed as reduction in Abeta42 levels in CSF by measuring AUC(0 to 48 hrs) at 30 mg/kg, po by ELISA; type: functional, Primates, Cerebrospinal fluid; set-up: scale not given: the % may be the effect or the level left
[9] = In vivo modulation of gamma secretase in nonhuman primate assessed as reduction in Abeta40 levels in CSF by measuring AUC(0 to 48 hrs) at 30 mg/kg, po by ELISA; type: functional, Primates, Cerebrospinal fluid; set-up: scale not given: the % may be the effect or the level left
[10] = In vivo modulation of gamma secretase in nonhuman primate assessed as reduction in Abeta40 levels in CSF at 30 mg/kg, po measured after 12 hrs by ELISA relative to control; type: functional, Primates, Cerebrospinal fluid; set-up: scale not given: the % may be the effect or the level left
[11] = Cmax in nonhuman primate at 10 mg/kg, po; type: ADME, organism-based; set-up: route oral, dose 10 mg/kg; conditions: primates, in vivo
[12] = Bioavailability in rat at 1 mg/kg, iv; type: ADME, organism-based; conditions: in vivo
[13] = Half life in dog at 0.5 mg/kg, iv; type: ADME, organism-based, Canis lupus familiaris; conditions: in vivo
[14] = Volume of distribution at steady state in nonhuman primate at 1 mg/kg, iv; type: ADME, organism-based; conditions: primates, in vivo, read-out: Vdss
[15] = Clearance in rat at 1 mg/kg, iv; type: ADME, organism-based; conditions: in vivo
[16] = Clearance in dog at 0.5 mg/kg, iv; type: ADME, organism-based, Canis lupus familiaris; conditions: in vivo
[17] = Clearance in nonhuman primate at 1 mg/kg, iv; type: ADME, organism-based; conditions: primates, in vivo
[18] = Clearance in dog blood relative to hepatic blood flow; type: ADME, tissue-based, Canis lupus familiaris
[19] = Clearance in nonhuman primate blood relative to hepatic blood flow; type: ADME, tissue-based; conditions: primates
[20] = Apparent permeability across apical to basolateral side in MDCK-MDR1 cells; type: ADME, cell-based, Canis lupus familiaris; conditions: dog
[21] = Drug metabolism in rat hepatocytes assessed as mono and di-oxidative metabolites formation after 4 hrs; type: ADME, cell-based, Hepatocyte
[22] = molecular target: T1, Cytochrome P450 1A2 (Homo sapiens, UniProt P05177); test: Inhibition of CYP1A2 (unknown origin); type: ADME
T1 sequence (P05177 whole entry): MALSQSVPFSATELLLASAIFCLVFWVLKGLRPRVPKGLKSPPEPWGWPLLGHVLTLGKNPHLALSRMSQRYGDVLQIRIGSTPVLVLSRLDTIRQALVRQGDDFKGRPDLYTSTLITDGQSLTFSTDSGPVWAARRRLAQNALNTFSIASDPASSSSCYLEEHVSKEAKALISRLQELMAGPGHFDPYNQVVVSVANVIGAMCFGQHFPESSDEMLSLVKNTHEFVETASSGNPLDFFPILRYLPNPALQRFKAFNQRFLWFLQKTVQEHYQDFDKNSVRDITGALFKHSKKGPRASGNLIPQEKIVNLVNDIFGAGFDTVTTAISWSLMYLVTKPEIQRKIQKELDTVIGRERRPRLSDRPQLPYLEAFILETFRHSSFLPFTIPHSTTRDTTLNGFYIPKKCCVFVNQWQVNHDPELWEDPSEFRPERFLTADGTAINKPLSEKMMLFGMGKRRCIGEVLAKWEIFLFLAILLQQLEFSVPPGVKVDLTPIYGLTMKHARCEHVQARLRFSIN

[23] = molecular target: Cytochrome P450 2C9 (Homo sapiens, UniProt P11712); test: Inhibition of CYP2C9 (unknown origin); type: ADME
[24] = molecular target: Cytochrome P450 3A4 (Homo sapiens, UniProt P08684); test: Inhibition of CYP3A4 (unknown origin); type: ADME
[25] = molecular target: T2, Cytochrome P450 2C8 (Homo sapiens, UniProt P10632); test: Inhibition of CYP2C8 (unknown origin); type: ADME
T2 sequence (P10632 whole entry): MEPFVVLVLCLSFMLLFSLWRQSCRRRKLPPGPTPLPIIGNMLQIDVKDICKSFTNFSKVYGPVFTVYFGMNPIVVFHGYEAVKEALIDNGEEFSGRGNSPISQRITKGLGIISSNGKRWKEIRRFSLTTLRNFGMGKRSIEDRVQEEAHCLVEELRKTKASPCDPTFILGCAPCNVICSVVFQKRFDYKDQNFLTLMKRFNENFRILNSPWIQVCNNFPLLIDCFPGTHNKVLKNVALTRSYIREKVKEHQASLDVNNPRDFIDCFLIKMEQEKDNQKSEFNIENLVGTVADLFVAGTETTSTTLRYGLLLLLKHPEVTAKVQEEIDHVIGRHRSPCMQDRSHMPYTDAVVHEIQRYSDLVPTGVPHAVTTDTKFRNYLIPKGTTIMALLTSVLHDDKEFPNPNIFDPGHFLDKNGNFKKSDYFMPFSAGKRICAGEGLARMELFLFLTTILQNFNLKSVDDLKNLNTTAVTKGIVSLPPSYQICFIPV

[26] = molecular target: Cytochrome P450 2C19 (Homo sapiens, UniProt P33261); test: Inhibition of CYP2C19 (unknown origin); type: ADME
[27] = molecular target: Vasopressin V1a receptor (Homo sapiens) (UniProt P37288); test: Inhibition of vasopressin 1A receptor (unknown origin) at 10 uM relative to control
[28] = molecular target: Sodium-dependent serotonin transporter (Homo sapiens) (UniProt P31645); test: Inhibition of serotonin transporter (unknown origin) at 10 uM relative to control
[29] = Toxicity in guinea pig assessed as reduction in heart flow rate by Langendorff test; type: tissue-based, Cavia porcellus; conditions: in vivo
[30] = Toxicity in guinea pig assessed as effect on sino-atrial node function in heart by Langendorff test; type: tissue-based, Cavia porcellus; conditions: in vivo
[31] = Toxicity in guinea pig assessed as effect on inotropy and lusitropy in heart by Langendorff test; type: tissue-based, Cavia porcellus; conditions: in vivo
[32] = Toxicity in guinea pig assessed as effect on signal conduction function in heart by Langendorff test; type: tissue-based, Cavia porcellus; conditions: in vivo
[33] = Toxicity in rat assessed as effect on arterial pressures by telemetry; conditions: in vivo
[34] = Toxicity in rat assessed as effect on left ventricular filling pressures by telemetry; conditions: in vivo
[35] = Toxicity in rat assessed as effect on cardiac compliance by telemetry; conditions: in vivo

Cytochrome P450 2C19, sequence (P33261 whole entry): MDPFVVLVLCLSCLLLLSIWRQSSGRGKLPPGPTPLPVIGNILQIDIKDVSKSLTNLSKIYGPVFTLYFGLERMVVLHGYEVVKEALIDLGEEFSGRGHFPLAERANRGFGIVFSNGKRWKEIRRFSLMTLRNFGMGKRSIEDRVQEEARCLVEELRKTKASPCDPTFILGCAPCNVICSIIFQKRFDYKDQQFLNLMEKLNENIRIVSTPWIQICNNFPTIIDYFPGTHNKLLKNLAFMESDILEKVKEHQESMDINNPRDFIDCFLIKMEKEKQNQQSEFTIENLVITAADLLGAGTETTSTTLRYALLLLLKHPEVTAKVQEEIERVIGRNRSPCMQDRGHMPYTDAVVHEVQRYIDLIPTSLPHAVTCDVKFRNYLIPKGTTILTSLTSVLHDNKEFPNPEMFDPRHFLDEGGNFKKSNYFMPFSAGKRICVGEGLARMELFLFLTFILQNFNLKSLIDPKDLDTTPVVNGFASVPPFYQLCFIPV
Cytochrome P450 3A4, sequence (P08684 whole entry): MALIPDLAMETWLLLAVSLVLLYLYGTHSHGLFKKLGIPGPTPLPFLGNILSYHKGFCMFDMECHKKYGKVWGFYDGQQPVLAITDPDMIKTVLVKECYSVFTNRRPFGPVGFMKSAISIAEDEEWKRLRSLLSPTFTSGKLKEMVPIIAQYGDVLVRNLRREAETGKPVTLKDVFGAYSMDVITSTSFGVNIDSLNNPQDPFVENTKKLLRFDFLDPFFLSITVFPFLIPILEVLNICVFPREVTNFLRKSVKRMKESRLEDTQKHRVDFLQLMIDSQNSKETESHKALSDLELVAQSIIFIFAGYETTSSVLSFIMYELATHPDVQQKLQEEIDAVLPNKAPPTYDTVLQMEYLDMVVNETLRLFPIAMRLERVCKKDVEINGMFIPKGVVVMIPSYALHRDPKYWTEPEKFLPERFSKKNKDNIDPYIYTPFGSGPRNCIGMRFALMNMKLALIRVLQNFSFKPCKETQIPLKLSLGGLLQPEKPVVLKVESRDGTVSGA
Vasopressin V1a receptor (Homo sapiens), sequence (P37288 whole entry, looked up): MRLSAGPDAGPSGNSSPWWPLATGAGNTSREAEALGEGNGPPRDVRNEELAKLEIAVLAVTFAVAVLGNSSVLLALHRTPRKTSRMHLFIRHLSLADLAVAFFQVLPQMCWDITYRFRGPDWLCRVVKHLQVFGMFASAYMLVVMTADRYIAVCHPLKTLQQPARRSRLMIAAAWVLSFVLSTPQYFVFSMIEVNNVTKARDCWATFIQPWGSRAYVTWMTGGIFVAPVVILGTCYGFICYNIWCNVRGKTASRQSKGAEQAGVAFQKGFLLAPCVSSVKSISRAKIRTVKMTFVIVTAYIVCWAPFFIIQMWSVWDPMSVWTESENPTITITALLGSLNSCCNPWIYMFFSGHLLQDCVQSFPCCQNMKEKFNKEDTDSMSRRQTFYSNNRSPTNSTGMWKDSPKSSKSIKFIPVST
Cytochrome P450 2C9, sequence (P11712 whole entry): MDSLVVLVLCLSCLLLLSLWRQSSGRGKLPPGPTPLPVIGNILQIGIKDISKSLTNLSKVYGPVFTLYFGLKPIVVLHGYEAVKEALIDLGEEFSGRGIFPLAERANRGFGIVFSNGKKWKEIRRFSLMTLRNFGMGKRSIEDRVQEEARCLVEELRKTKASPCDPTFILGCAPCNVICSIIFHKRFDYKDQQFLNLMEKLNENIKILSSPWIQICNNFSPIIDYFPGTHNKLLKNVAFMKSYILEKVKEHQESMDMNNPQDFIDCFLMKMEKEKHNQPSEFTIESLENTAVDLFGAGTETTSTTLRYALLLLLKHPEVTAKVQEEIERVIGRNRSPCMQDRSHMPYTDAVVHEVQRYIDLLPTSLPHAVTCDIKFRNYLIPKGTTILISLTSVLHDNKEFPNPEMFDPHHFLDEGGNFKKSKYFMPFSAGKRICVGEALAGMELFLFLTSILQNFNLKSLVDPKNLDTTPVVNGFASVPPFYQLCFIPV
Sodium-dependent serotonin transporter (Homo sapiens), sequence (P31645 whole entry, looked up): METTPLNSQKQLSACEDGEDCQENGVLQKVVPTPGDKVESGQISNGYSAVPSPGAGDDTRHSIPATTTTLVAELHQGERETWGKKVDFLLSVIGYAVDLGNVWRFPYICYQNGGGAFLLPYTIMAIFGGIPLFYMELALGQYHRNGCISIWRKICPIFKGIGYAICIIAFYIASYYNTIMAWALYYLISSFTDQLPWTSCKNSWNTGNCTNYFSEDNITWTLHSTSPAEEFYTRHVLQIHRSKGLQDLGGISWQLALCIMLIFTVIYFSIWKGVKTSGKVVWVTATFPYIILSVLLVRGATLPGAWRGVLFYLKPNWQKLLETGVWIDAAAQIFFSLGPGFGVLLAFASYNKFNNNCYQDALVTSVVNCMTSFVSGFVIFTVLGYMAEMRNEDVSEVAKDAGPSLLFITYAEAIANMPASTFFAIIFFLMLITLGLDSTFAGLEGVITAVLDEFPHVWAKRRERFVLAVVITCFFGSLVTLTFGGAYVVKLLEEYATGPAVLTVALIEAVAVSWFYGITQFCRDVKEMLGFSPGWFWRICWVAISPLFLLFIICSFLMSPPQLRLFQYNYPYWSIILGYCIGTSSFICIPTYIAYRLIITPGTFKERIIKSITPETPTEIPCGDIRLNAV

- Cmax [11]: 6.09 µM
- bioavailability [12]: 86%
- half-life [13]: 2.9 h
- Vd [14]: 1.2 L/kg
- clearance [15]: 0.186 L/h/kg
- clearance [16]: 0.204 L/h/kg
- clearance [17]: 0.21 L/h/kg
- CL [18]: < 20%
- CL [19]: < 20%
- Papp A→B [20]: 340 nm/s
- Drug metabolism [21]: Metabolite_Detected
- IC50 [22]: ≥ 14 µM
- IC50 [23]: ≥ 14 µM
- IC50 [24]: ≥ 14 µM
- IC50 [25]: 2.6 µM
- IC50 [26]: 9.1 µM
- inhibition [27]: > 50%
- inhibition [28]: > 50%
Compound: COc1nc(C2=NOC(C3CC3)C(c3ccc(Cl)cc3)N2)ccc1-n1cnc(C)c1 (stereo not given)
- Activity [1]: 51%
- Activity [2]: 88%
- Activity [3]: 39%
- Activity [4]: 71%
- Activity [5]: 48%
- Activity [6]: 50%
- Activity [7]: 67%
- Activity [8]: 63%
- Activity [9]: 25%
- Activity [10]: 57%
- Activity [29]: Non-Toxic
- Activity [30]: Non-Toxic
- Activity [31]: Non-Toxic
- Activity [32]: Non-Toxic
- Activity [33]: Non-Toxic
- Activity [34]: Non-Toxic
- Activity [35]: Non-Toxic
